Data from ChEMBL document CHEMBL1275569, “Plasmid-mediated 16S rRNA methylases among extended-spectrum beta-lactamase-producing Enterobacteriaceae isolates” (2008).
Converted amounts (≈) assume the structure as drawn.

Assays:
[1] = system: Escherichia coli; experiment: Antimicrobial activity against rmtB positive Escherichia coli VOG producing beta lactamase CTX-M-14 by Etest method; format: functional
[2] = system: Escherichia coli; experiment: Antimicrobial activity against Escherichia coli TOP10 by Etest method; format: functional
[3] = system: Escherichia coli; experiment: Antimicrobial activity against Escherichia coli TOP10 harboring plasmid VOG2 expressing CTX-M-14 and AAC(6 )-Ib gene by Etest method; format: functional
[4] = system: Escherichia coli; experiment: Antimicrobial activity against armA positive Escherichia coli COP producing beta lactamase CTX-M-14 by Etest method
[5] = system: Klebsiella pneumoniae; experiment: Antimicrobial activity against armA positive Klebsiella pneumoniae DU producing beta lactamase CTX-M-3 by Etest method; format: functional
[6] = system: Enterobacter cloacae; experiment: Antimicrobial activity against armA positive Enterobacter cloacae BEH producing beta lactamase CTX-M-3 by Etest method; format: functional
[7] = system: Escherichia coli; experiment: Antimicrobial activity against armA positive Escherichia coli TOP10 producing beta lactamase CTX-M-3 with plasmid MEZ by Etest method; format: functional
[8] = system: Escherichia coli; experiment: Antimicrobial activity against armA positive Escherichia coli TOP10 producing beta lactamase CTX-M-3 with plasmid BEH by Etest method; format: functional
[9] = system: Escherichia coli; experiment: Antimicrobial activity against armA positive Escherichia coli TOP10 producing beta lactamase CTX-M-3 with plasmid DU by Etest method; format: functional
[10] = system: Escherichia coli; experiment: Antimicrobial activity against beta lactamase CTX-M-14 producing Escherichia coli TOP10 harboring plasmid COP2 by Etest method; format: functional
[11] = system: Escherichia coli; experiment: Antimicrobial activity against armA positive Escherichia coli MEZ producing beta lactamase CTX-M-3 by Etest method; format: functional
[12] = system: Escherichia coli; experiment: Antimicrobial activity against Escherichia coli TOP10 harboring plasmid VOG1 expressing RmtB, TEM-1, and QepA gene by Etest method; format: functional
[13] = system: Escherichia coli; experiment: Antimicrobial activity against armA positive Escherichia coli TOP10 harboring plasmid COP1 by Etest method; format: functional

| Compound | MIC [1] | MIC [2] | MIC [3] | MIC [4] | MIC [5] | MIC [6] | MIC [7] | MIC [8] | MIC [9] | MIC [10] | MIC [11] | MIC [12] | MIC [13] |
| --- | --- | --- | --- | --- | --- | --- | --- | --- | --- | --- | --- | --- | --- |
| NCC[C@H](O)C(=O)N[C@@H]1C[C@H](N)[C@@H](O[C@H]2O[C@H](CN)[C@@H](O)[C@H](O)[C@H]2O)[C@H](O)[C@H]1O[C@H]1O[C@H](CO)[C@@H](O)[C@H](N)[C@H]1O [AMIKACIN] | > 256 µg/mL | 1 µg/mL (≈ 1.71 µM) | 1.5 µg/mL (≈ 2.56 µM) | > 256 µg/mL | > 256 µg/mL | > 256 µg/mL | > 256 µg/mL | > 256 µg/mL | > 256 µg/mL | 1 µg/mL (≈ 1.71 µM) | > 256 µg/mL | – | – |
| CO/N=C(\C(=O)N[C@@H]1C(=O)N2C(C(=O)O)=C(COC(C)=O)CS[C@H]12)c1csc(N)n1 [CEFOTAXIME] | > 32 µg/mL | 0.047 µg/mL (≈ 0.103 µM) | – | > 32 µg/mL | > 32 µg/mL | > 32 µg/mL | > 32 µg/mL | > 32 µg/mL | > 32 µg/mL | 8 µg/mL (≈ 17.6 µM) | > 32 µg/mL | 0.047 µg/mL (≈ 0.103 µM) | 0.047 µg/mL (≈ 0.103 µM) |
| CC(C)(O/N=C(\C(=O)N[C@@H]1C(=O)N2C(C(=O)[O-])=C(C[n+]3ccccc3)CS[C@H]12)c1csc(N)n1)C(=O)O [CEFTAZIDIME] | 6 µg/mL (≈ 11 µM) | 0.38 µg/mL (≈ 0.695 µM) | 2 µg/mL (≈ 3.66 µM) | 1 µg/mL (≈ 1.83 µM) | 2 µg/mL (≈ 3.66 µM) | 16 µg/mL (≈ 29.3 µM) | 3 µg/mL (≈ 5.49 µM) | 8 µg/mL (≈ 14.6 µM) | 2 µg/mL (≈ 3.66 µM) | 1 µg/mL (≈ 1.83 µM) | 3 µg/mL (≈ 5.49 µM) | 0.38 µg/mL (≈ 0.695 µM) | 0.38 µg/mL (≈ 0.695 µM) |
| O=C(O)c1cn(C2CC2)c2cc(N3CCNCC3)c(F)cc2c1=O [CIPROFLOXACIN] | > 32 µg/mL | < 0.002 µg/mL | – | > 32 µg/mL | 0.125 µg/mL (≈ 0.377 µM) | – | < 0.002 µg/mL | < 0.002 µg/mL | < 0.002 µg/mL | – | > 32 µg/mL | – | – |
| C[C@@H](O)[C@H]1C(=O)N2C(C(=O)O)=C(SCCNC=N)C[C@H]12 [IMIPENEM ANHYDROUS] | 0.19 µg/mL (≈ 0.635 µM) | 0.19 µg/mL (≈ 0.635 µM) | 0.19 µg/mL (≈ 0.635 µM) | 0.19 µg/mL (≈ 0.635 µM) | 0.19 µg/mL (≈ 0.635 µM) | 0.19 µg/mL (≈ 0.635 µM) | 0.19 µg/mL (≈ 0.635 µM) | 0.19 µg/mL (≈ 0.635 µM) | 0.19 µg/mL (≈ 0.635 µM) | 0.19 µg/mL (≈ 0.635 µM) | 0.19 µg/mL (≈ 0.635 µM) | 0.19 µg/mL (≈ 0.635 µM) | 0.19 µg/mL (≈ 0.635 µM) |
| CCN[C@@H]1C[C@H](N)[C@@H](O[C@H]2OC(CN)=CC[C@H]2N)[C@H](O)[C@H]1O[C@H]1OC[C@](C)(O)[C@H](NC)[C@H]1O [NETILMICIN] | > 256 µg/mL | 0.25 µg/mL (≈ 0.526 µM) | 1.5 µg/mL (≈ 3.15 µM) | > 256 µg/mL | > 256 µg/mL | > 256 µg/mL | > 256 µg/mL | > 256 µg/mL | > 256 µg/mL | 0.125 µg/mL (≈ 0.263 µM) | > 256 µg/mL | – | – |
| CCn1cc(C(=O)O)c(=O)c2cc(F)c(N3CCNCC3)cc21 [NORFLOXACIN] | > 256 µg/mL | < 0.016 µg/mL | < 0.016 µg/mL | > 256 µg/mL | 0.75 µg/mL (≈ 2.35 µM) | 1 µg/mL (≈ 3.13 µM) | 0.016 µg/mL (≈ 0.0501 µM) | 0.016 µg/mL (≈ 0.0501 µM) | 0.016 µg/mL (≈ 0.0501 µM) | < 0.016 µg/mL | > 256 µg/mL | 0.032 µg/mL (≈ 0.1 µM) | < 0.016 µg/mL |
| NC[C@H]1O[C@H](O[C@H]2[C@H](O)[C@@H](O[C@H]3O[C@H](CO)[C@@H](O)[C@H](N)[C@H]3O)[C@H](N)C[C@@H]2N)[C@H](N)C[C@@H]1O [TOBRAMYCIN] | > 256 µg/mL | 0.38 µg/mL (≈ 0.813 µM) | 3 µg/mL (≈ 6.42 µM) | > 256 µg/mL | > 256 µg/mL | > 256 µg/mL | > 256 µg/mL | > 256 µg/mL | > 256 µg/mL | 0.19 µg/mL (≈ 0.406 µM) | > 256 µg/mL | – | – |
| GENTAMICIN | > 256 µg/mL | 0.25 µg/mL | 0.25 µg/mL | – | > 256 µg/mL | > 256 µg/mL | > 256 µg/mL | > 256 µg/mL | > 256 µg/mL | 0.125 µg/mL | > 256 µg/mL | > 256 µg/mL | > 256 µg/mL |
